From patent US20110171279A1, “POLYETHYLENIMINE BIOCIDES” (NDSU RESEARCH FOUNDATION, priority 2009, published 2011)
Like-named read-outs stand apart in the source and are kept apart here. One block for each molecule: values may come before it.

Key:
Format in all cases: cell-based
Escherichia coli = assay: Growth reduction / MIC test against Escherichia coli in Luria-Bertani broth, absorbance 600 nm; settings: for Percent reduction in growth of Escherichia coli: Table 10; for MIC: Escherichia coli, read-out: E. Coli MIC
Method: (§1) The antimicrobial properties of the Formulations were determined by measuring the minimum inhibitory concentration (MIC) or by using an adaptation of the MIC test. […] Additional details of the MIC method can be found at Andrews, J. M., Journal of Antimicrobial Chemotherapy (2001) 48, 5-16, incorporated herein by reference in its entirety.
(§2) In accordance with the MIC test, working solutions for each Formulation were prepared by dissolving 100 mg of each Formulation in 10 mL of methanol (Sigma-Aldrich) to generate a 10 mg/mL solution. Next, 10 ml of Luria-Bertani broth was spiked with 200 μL of the mg/mL Formulation solution to achieve a final concentration of 0.2 mg/mL.
(§3) 0.2 mL of each concentration of each Formulation (spiked with E. coli) was added in triplicate to a 96-well plate. Additionally, 0.2 mL of Luria-Bertani broth without any E. coli or Formulation and 0.2 mL of Luria-Bertani broth with E. coli, but no Formulations, served as negative and positive growth controls, respectively. Plates were then placed in an incubator, at 37° C. for 24 hrs (with shaking), and then measured for growth by taking absorbance measurements at 600 nm with a multi-well plate spectrophotometer (Synergy HT). The efficacy of each Formulation was measured by determining the percent reduction in bacterial growth as a function of Formulation concentration.
Next, the antimicrobial activity of Formulations 69-77 and Reference 1 toward E. coli was measured by determining the percent reduction in bacterial growth as a function of concentration. The results for the examples were compared to various PEIs used to produce the examples.

Candida albicans = assay: Antifungal activity, percent reduction in fungal growth of Candida albicans; settings: Table 11
Method: Additionally, the antifungal activity of Formulations 69-77 and Reference 1 toward Candida albicans was measured by determining the percent reduction in fungal growth as a function of concentration.

[1] = system: Staphylococcus epidermidis; assay: Growth reduction / MIC test against Staphylococcus epidermidis in tryptic soy broth, absorbance 600 nm; settings: for Percent reduction in growth of Staphylococcus epidermidis: Table 9; for MIC: Staphylococcus epidermidis, read-out: S. epidermidis MIC
Method: as §1
as §2, with “tryptic soy” for “Luria-Bertani”
as §3, with “S. epidermidis)” for “E. coli)”, “tryptic soy” for “Luria-Bertani”, “S. epidermidis” for “E. coli”, “S. epidermidis,” for “E. coli,”, “HT microplate reader, BioTek Instruments, Winooski, Vt.).” for “HT).”
For comparison purposes a benzylpiperidino biocide (“Reference 1”) was prepared using ETCS and synthetic methods similar to those described in U.S. Pat. No. 5,036,077, issued Jul. 30, 1991, and incorporated by reference in its entirety. To make Reference 1, 3.9 g of ETCS and 2 g of 4-benzylpiperidine were reacted in 30 mL of methanol. The mixture was heated at 65° C. for 48 hours. Reaction completion was confirmed by ^1H NMR, ^13C NMR, HMQC (2D) NMR and elemental analysis. The antimicrobial activity of Formulations 69-77 and Reference 1 toward S. epidermidis was measured by determining the percent reduction in bacterial growth as a function of concentration, as was done above in EXAMPLE 3.

Halomonas pacifica = assay: Growth reduction / MIC test against Halomonas pacifica; settings: for MIC: Bisbaumannia pacifica
Method: as §1
as §2, with “ml of Guillard's F/2 medium was spiked” for “ml of Luria-Bertani broth was spiked”, “of the 10 mg/mL Formulation” for “of the mg/mL Formulation”
0.2 mL of each H. pacifica concentration was added in triplicate to a 96-well plate. Additionally, 0.2 mL of Guillard's F/2 medium without any H. pacifica or Formulation and 0.2 mL of Guillard's F/2 medium with H. pacifica, but no Formulations, served as negative and positive growth controls, respectively. The 96-well plates were placed in an illuminated growth cabinet with a 16:8 light:dark cycle (photon flux density 33 μmol m^−2 s^−1) for 48 hrs at 18° C. and measured for chlorophyll fluorescence using a multi-well plate spectrophotometer (excitation: 360 nm; emission: 670 nm). The efficacy of each Formulation was measured by determining the percent reduction in diatom growth as a function of Formulation concentration.
(§4) The antimicrobial activity of Formulations 10-12, also derived from ETCS and PEI, was determined toward a suite of marine microorganisms, namely, Pseudoalteromonas atlantica, Cellulophaga lytica, Cobetia marina, and Halomonas pacifica. The antimicrobial activity of Formulations 10-12 was determined toward these marine microorganisms according to the methods of EXAMPLES 5-7. The MIC for each Formulation against each strain is compared to that of the PEI, ETCS, and TCS (alone) in Table 7.

Cellulophaga lytica = assay: Growth reduction / MIC test against Cellulophaga lytica; settings: for MIC: Cellulophaga lytica
Method: as §1
as §2, with “ml of Guillard's F/2 medium was spiked” for “ml of Luria-Bertani broth was spiked”, “of the 10 mg/mL Formulation” for “of the mg/mL Formulation”
(§5) 0.2 mL of each concentration of each Formulation (spiked with C. lytica) was added in triplicate to a 96-well plate. Additionally, 0.2 mL of Guillard's F/2 medium without any C. lytica or Formulation and 0.2 mL of Guillard's F/2 medium with C. lytica, but no Formulations, served as negative and positive growth controls, respectively. The 96-well plates were placed in an illuminated growth cabinet with a 16:8 light:dark cycle (photon flux density 33 μmol m^−2 s^−1) for 48 hrs at 18° C. and measured for chlorophyll fluorescence using a multi-well plate spectrophotometer (excitation: 360 nm; emission: 670 nm). The efficacy of each Formulation was measured by determining the percent reduction in diatom growth as a function of Formulation concentration.
as §4

Navicula incerta [2] = assay: Growth reduction / MIC test against Navicula incerta in Guillard's F/2 medium, chlorophyll fluorescence
Method: as §1
as §2, with “ml of Guillard's F/2 medium was spiked” for “ml of Luria-Bertani broth was spiked”, “of the 10 mg/mL Formulation” for “of the mg/mL Formulation”
as §5, with “N. incerta)” for “C. lytica)”, “N. incerta” for “C. lytica”, “N. incerta,” for “C. lytica,”

Navicula incerta [3] = assay: as above; settings: Table 12; read-out: N. incerta MIC
[4] = Formulation Concentration 0.78125 μg/mL
[5] = Formulation Concentration 1.5625 μg/mL
[6] = Formulation Concentration 3.125 μg/mL
[7] = Formulation Concentration 6.25 μg/mL
[8] = Formulation Concentration 12.5 μg/mL
[9] = Formulation Concentration 25 μg/mL
[10] = Formulation Concentration 50 μg/mL
[11] = Formulation Concentration 100 μg/mL
[12] = Table 12, read-out: H. pacifica MIC
[13] = Table 12, read-out: C. lytica MIC

Structure (SMILES): Clc1cc(Cl)c(OCC2CO2)c(Cl)c1 (stereo not drawn) [EDCP, 2-((2,4,6-trichlorophenoxy)methyl)oxirane]
- Percent reduction in growth of Escherichia coli (Escherichia coli; [4]): 14.85%
- Percent reduction in growth of Escherichia coli (Escherichia coli; [5]): 1.60%
- Percent reduction in growth of Escherichia coli (Escherichia coli; [6]): 0.00%
- Percent reduction in growth of Escherichia coli (Escherichia coli; [7]): 55.43%
- Percent reduction in growth of Escherichia coli (Escherichia coli; [8]): 52.95%
- Percent reduction in growth of Escherichia coli (Escherichia coli; [9]): 61.26%
- Percent reduction in growth of Escherichia coli (Escherichia coli; [10]): 1.38%
- Percent reduction in growth of Escherichia coli (Escherichia coli; [11]): 91.65%
- Percent reduction in growth of Candida albicans (Candida albicans; [4]): 11.66%
- Percent reduction in growth of Candida albicans (Candida albicans; [5]): 15.25%
- Percent reduction in growth of Candida albicans (Candida albicans; [6]): 0.00%
- Percent reduction in growth of Candida albicans (Candida albicans; [7]): 1.45%
- Percent reduction in growth of Candida albicans (Candida albicans; [8]): 0.00%
- Percent reduction in growth of Candida albicans (Candida albicans; [9]): 0.00%
- Percent reduction in growth of Candida albicans (Candida albicans; [10]): 21.55%
- Percent reduction in growth of Candida albicans (Candida albicans; [11]): 25.83%
- Percent reduction in growth of Staphylococcus epidermidis [1, 4]: 7.58%
- Percent reduction in growth of Staphylococcus epidermidis [1, 5]: 6.34%
- Percent reduction in growth of Staphylococcus epidermidis [1, 6]: 5.04%
- Percent reduction in growth of Staphylococcus epidermidis [1, 7]: 8.44%
- Percent reduction in growth of Staphylococcus epidermidis [1, 8]: 6.20%
- Percent reduction in growth of Staphylococcus epidermidis [1, 9]: 8.90%
- Percent reduction in growth of Staphylococcus epidermidis [1, 10]: 5.00%
- Percent reduction in growth of Staphylococcus epidermidis [1, 11]: 0.00%

Structure (SMILES): CNc1ccccc1 [N-methyl aniline, N-methylaniline]
- MIC (Escherichia coli): > 100 µg/mL
- MIC (Halomonas pacifica; read-out: H. pacifica MIC, Table 12): > 100 µg/mL
- MIC (Cellulophaga lytica; read-out: C. lytica MIC, Table 12): > 100 µg/mL
- MIC [1]: > 100 µg/mL
- MIC (Navicula incerta [2]; read-out: N. incerta MIC): > 100 µg/mL

Structure (SMILES): C=CCN [allyl amine]
- MIC (Escherichia coli; Table 12): > 100 µg/mL
- MIC (Halomonas pacifica; [12]): > 100 µg/mL
- MIC (Cellulophaga lytica; [13]): > 100 µg/mL
- MIC (Navicula incerta [3]): > 100 µg/mL
- MIC ([1]; Table 12): > 100 µg/mL

- MIC (Escherichia coli; Table 12): > 100 µg/mL
- MIC (Halomonas pacifica; [12]): > 100 µg/mL
- MIC (Cellulophaga lytica; [13]): > 100 µg/mL
- MIC (Navicula incerta [3]): > 100 µg/mL
- MIC ([1]; Table 12): > 100 µg/mL
Structure (SMILES): COCCNCCOC [bis(methoxyethyl), bis(2-methoxyethyl)amine]

- MIC (Escherichia coli; Table 12): > 100 µg/mL
- MIC (Halomonas pacifica; [12]): > 100 µg/mL
- MIC (Cellulophaga lytica; [13]): > 100 µg/mL
- MIC (Navicula incerta [3]): > 100 µg/mL
- MIC ([1]; Table 12): > 100 µg/mL
Structure (SMILES): OCCNCCO [diethanolamine]

- E. Coli MIC (Escherichia coli; Table 12): >100 µg/mL
- H. pacifica MIC (Halomonas pacifica; Table 12): >100 µg/mL
- C. lytica MIC (Cellulophaga lytica; Table 12): >100 µg/mL
- S. epidermidis MIC ([1]; Table 12): >100 µg/mL
- N. incerta MIC (Navicula incerta [2]; Table 12): >100 µg/mL
Structure (SMILES): CC(O)CNCC(C)O (stereo not drawn) [diisopropanolamine]

- MIC (Escherichia coli; Table 12): > 100 µg/mL
- MIC (Halomonas pacifica; [12]): > 100 µg/mL
- MIC (Cellulophaga lytica; [13]): > 100 µg/mL
- MIC (Navicula incerta [3]): > 100 µg/mL
- MIC ([1]; Table 12): > 100 µg/mL
Structure (SMILES): NCCN [ethylenediamine]
